Data taken from patent publication US12233161B1, “Lipids and lipid nanoparticle formulations” (LONGUIDE BIOPHARMA CORPORATION, priority 2024, dated 2025).

Assays:
mice [1] = assay: In vivo delivery of FLuc-mRNA lipid nanoparticles in mice, in vivo imaging (IVIS); settings: for IVIS: Fluc-mRNA
In short: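 Mice (n=3) received about 75 μL FLuc-mRNA LNP per mouse intramuscularly (rectus femoris), intravenously (tail vein), intraperitoneally or subcutaneously (back). After injection, D-luciferin (200 μL, 15 mg/mL) was given i.p. 10-15 min before IVIS imaging.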

[2] = Particle size and PDI of nucleic acid lipid nanoparticle preparations by dynamic light scattering; type: physicochemical
In short: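 LNP solution (about 0.04 mg/mL mRNA before dilution) was diluted in ultrapure water and mixed by gentle pipetting. Particle size and PDI were then measured by dynamic light scattering.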

[3] = Potential characterization of nucleic acid lipid nanoparticle preparations; type: physicochemical; settings: Fluc-circ-RNA LNP, preparation given IV
In short: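 Nanoparticles (about 0.04 mg/mL mRNA) were diluted in ultrapure water for Malvern ZEN3700 measurement: 20 μL into 780 μL for potential alone, or 27.5 μL into 200 μL for DLS particle size followed by addition of 600 μL water for potential.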

mice [4] = assay: In vivo delivery of FLuc-circ-RNA lipid nanoparticles in mice; settings: Fluc-circ-RNA LNP, IV
In short: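 FLuc-circ-RNA-loaded LNPs given to mice by intramuscular (quadriceps), intravenous (tail vein), intraperitoneal or subcutaneous (back) injection, ~75 μL per mouse, 3 mice per group. D-Luciferin (200 μL of 15 mg/mL) injected i.p. 10–15 min before whole-body bioluminescence imaging.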

[5] = IV, liver, DMG-PEG2000:DOPE:Chol:compound 1.40:11.15:38.95:48.50, N/P 30
[6] = IV, liver, DMG-PEG2000:DSPC:Chol:compound 1.00:11.50:27.50:60.00, N/P 30
[7] = IV, lung, DMG-PEG2000:DOPE:Chol:compound 1.40:11.15:38.95:48.50, N/P 30
[8] = IV, lung, DMG-PEG2000:DSPC:Chol:compound 1.00:11.50:27.50:60.00, N/P 30
[9] = IV, spleen, DMG-PEG2000:DOPE:Chol:compound 1.40:11.15:38.95:48.50, N/P 30
[10] = IV, spleen, DMG-PEG2000:DSPC:Chol:compound 1.00:11.50:27.50:60.00, N/P 30
[11] = DMG-PEG2000:DOPE:Chol:compound 1.40:11.15:38.95:48.50, N/P 30
[12] = DMG-PEG2000:DSPC:Chol:compound 1.00:11.50:27.50:60.00, N/P 30
[13] = Fluc-circ-RNA LNP, preparation given IV

- PDI [2, 11]: 0.38
- Particle size (nm) [2, 11]: 78.75 nm
- PDI [2, 12]: 0.23
- Particle size (nm) [2, 12]: 157.00 nm
- PDI [2, 13]: 0.24
- Particle size (nm) [2, 13]: 161.2 nm
- Zeta potential (mV) [3]: 14.23 mV
Structure (SMILES): [2H]C([2H])([2H])[N+](CCCN(CC(O)C(=O)NCCCCCCCCCCCC)CC(O)C(=O)NCCCCCCCCCCCC)(CCCN(CC(O)C(=O)NCCCCCCCCCCCC)CC(O)C(=O)NCCCCCCCCCCCC)C([2H])([2H])[2H] (stereo not shown) [Compound L0346]
- IVIS (mice [1]; IM, DMG-PEG2000:DOPE:Chol:compound 1.40:11.15:38.95:48.50, N/P 30): 3.49E+05
- IVIS (mice [1]; IV, body, DMG-PEG2000:DOPE:Chol:compound 1.40:11.15:38.95:48.50, N/P 30): 1.95E+08
- IVIS (mice [1]; IV, body, DMG-PEG2000:DSPC:Chol:compound 1.00:11.50:27.50:60.00, N/P 30): 3.93E+08
- % of organ targeting (mice [1]; [5]): 0.84%
- IVIS (mice [1]; [5]): 2.65E+06
- % of organ targeting (mice [1]; [6]): 0.56%
- IVIS (mice [1]; [6]): 7.32E+06
- % of organ targeting (mice [1]; [7]): 98.01%
- IVIS (mice [1]; [7]): 3.10E+08
- % of organ targeting (mice [1]; [8]): 98.90%
- IVIS (mice [1]; [8]): 1.28E+09
- % of organ targeting (mice [1]; [9]): 1.16%
- IVIS (mice [1]; [9]): 3.66E+06
- % of organ targeting (mice [1]; [10]): 0.54%
- IVIS (mice [1]; [10]): 6.96E+06
- % of organ targeting (mice [4]; liver): 0.87%
- % of organ targeting (mice [4]; lung): 98.45%
- % of organ targeting (mice [4]; spleen): 0.69%
